The NIST ThermoML archive (doi:10.1021/acs.jced.9b00246)
Numbers after ± are expanded uncertainties.

Assay: an = ratio of the nth substance listed
Settings: 101.3 kPa, Liquid; for viscosity: Concentric cylinders viscometry; for mass density: Vibrating tube method

CCN.Cl [ethylammonium chloride] + NC(N)=O
Settings	mass density, 313.2 K [kg/m3]	mass density, 323.2 K [kg/m3]	mass density, 333.2 K [kg/m3]	mass density, 343.2 K [kg/m3]	mass density, 353.2 K [kg/m3]	viscosity, 313.2 K [mPa·s]	viscosity, 323.2 K [mPa·s]	viscosity, 333.2 K [mPa·s]	viscosity, 343.2 K [mPa·s]	viscosity, 353.2 K [mPa·s]
a2 = 0.5	1103.2 ± 3.4	1098.1 ± 3.3	1093.11 ± 3.3	1088.05 ± 3.2	1083.06 ± 3.2	97.8 ± 9	69.6 ± 5.1	50.8 ± 4.2	40.9 ± 4	34.8 ± 4
a2 = 1	1141.67 ± 3.4	1135.99 ± 3.3	1130.4 ± 3.2	1124.89 ± 3.2	1119.43 ± 3.2	197.7 ± 5.6	110.1 ± 4.6	68.3 ± 4.1	47.6 ± 4.1	34.8 ± 4
a2 = 1.94	1178.75 ± 5	1172.79 ± 5	1166.88 ± 4.9	1160.96 ± 4.8	1155.08 ± 4.8	105.5 ± 12	67.5 ± 6.2	49.2 ± 4.6	37.5 ± 4.2	28.7 ± 4.1
